Experimental data taken from article PMC10819888, “Benzimidazole-Based Derivatives as Apoptotic Antiproliferative Agents: Design, Synthesis, Docking, and Mechanistic Studies” (Molecules, 2024).

Legend:
Assay type in all cases: cell-based, human
RPMI-8226 = assay: NCI-60 five-dose assay; conditions: RPMI-8226, Leukemia
K-562 = assay: NCI-60 five-dose assay; conditions: K-562, Leukemia
MOLT-4 = assay: NCI-60 five-dose assay; conditions: MOLT-4, Leukemia
HOP-92 = assay: NCI-60 five-dose assay; conditions: HOP-92, Non-Small Cell Lung Cancer
NCI-H226 = assay: NCI-60 five-dose assay; conditions: NCI-H226, Non-Small Cell Lung Cancer
NCI-H23 = assay: NCI-60 five-dose assay; conditions: NCI-H23, Non-Small Cell Lung Cancer
NCI-H460 = assay: NCI-60 five-dose assay; conditions: NCI-H460, Non-Small Cell Lung Cancer
HCC-2998 = assay: NCI-60 five-dose assay; conditions: HCC-2998, Colon Cancer
HCT-116 = assay: NCI-60 five-dose assay; conditions: HCT-116, Colon Cancer
SW-620 = assay: NCI-60 five-dose assay; conditions: SW-620, Colon Cancer
SF-268 = assay: NCI-60 five-dose assay; conditions: SF-268, CNS Cancer
SF-295 = assay: NCI-60 five-dose assay; conditions: SF-295, CNS Cancer
SNB-19 = assay: NCI-60 five-dose assay; conditions: SNB-19, CNS Cancer
UACC-257 = assay: NCI-60 five-dose assay; conditions: UACC-257, Melanoma
OVCAR-4 = assay: NCI-60 five-dose assay; conditions: OVCAR-4, Ovarian Cancer
OVCAR-8 = assay: NCI-60 five-dose assay; conditions: OVCAR-8, Ovarian Cancer
SK-OV-3 = assay: NCI-60 five-dose assay; conditions: SK-OV-3, Ovarian Cancer
786-0 = assay: NCI-60 five-dose assay; conditions: 786-0, Renal Cancer
CAKI-1 = assay: NCI-60 five-dose assay; conditions: CAKI-1, Renal Cancer
SN12C = assay: NCI-60 five-dose assay; conditions: SN12C, Renal Cancer
DU-145 = assay: NCI-60 five-dose assay; conditions: DU-145, Prostate Cancer
HS 578T = assay: NCI-60 five-dose assay; conditions: HS 578T, Breast Cancer
MDA-MB-468 = assay: NCI-60 five-dose assay; conditions: MDA-MB-468, Breast Cancer
Leukemia subpanel = assay: NCI-60 five-dose assay, subpanel; conditions: Leukemia
CNS Cancer subpanel = assay: NCI-60 five-dose assay, subpanel; conditions: CNS Cancer
[1] = Homo sapiens, read-out: GI50 Conc. per Cell Line
[2] = Homo sapiens, read-out: LC50 (the source's name)
[3] = Homo sapiens, average sensitivity of all subpanel cell lines, read-out: GI50 Subpanel MID b

## COc1ccc(C=NNC(=O)c2ccc3[nH]c(-c4ccc(Cl)cc4)nc3c2)cc1 [Compound 4g, N′-(4-Methoxybenzylidene)-2-(4-chlorophenyl)-1H-benzimidazole-5-carbohydrazide]
RPMI-8226; [1]
  GI50: 0.997 µM
RPMI-8226; [2]
  CC50: > 100 µM
RPMI-8226
  TGI: 4.77 µM
K-562; Homo sapiens, K562, read-out: GI50 Conc. per Cell Line
  GI50: 2.69 µM
K-562; Homo sapiens, K562, read-out: LC50 (the source's name)
  CC50: > 100 µM
K-562
  TGI: 11.20 µM
MOLT-4; [1]
  GI50: 4.53 µM
MOLT-4; [2]
  CC50: > 100 µM
MOLT-4
  TGI: 30.40 µM
HOP-92
  TGI: 4.11 µM
HOP-92; Homo sapiens
  LC50 (50% lethal concentration): 15.1 µM
HOP-92; [1]
  GI50: 1.52 µM
NCI-H226; [1]
  GI50: 1.79 µM
NCI-H226; [2]
  CC50: 13.5 µM
NCI-H226
  TGI: 4.43 µM
NCI-H23; [1]
  GI50: 2.74 µM
NCI-H23; [2]
  CC50: 75.9 µM
NCI-H23
  TGI: 11.20 µM
NCI-H460; Homo sapiens
  LC50: 7.05 µM
NCI-H460; [1]
  GI50: 1.83 µM
NCI-H460
  TGI: 3.59 µM
HCC-2998
  TGI: 6.44 µM
HCC-2998; [1]
  GI50: 2.57 µM
HCC-2998; [2]
  CC50: 37.8 µM
HCT-116
  TGI: 5.12 µM
HCT-116; [1]
  GI50: 2.14 µM
HCT-116; [2]
  CC50: 18.9 µM
SW-620; Homo sapiens
  LC50: 31 µM
SW-620; [1]
  GI50: 2.41 µM
SW-620
  TGI: 5.58 µM
SF-268; [1]
  GI50: 2.09 µM
SF-268; [2]
  CC50: 20.8 µM
SF-268
  TGI: 5.10 µM
SF-295; [1]
  GI50: 2.23 µM
SF-295; [2]
  CC50: 15 µM
SF-295
  TGI: 5.05 µM
SNB-19; [1]
  GI50: 3.13 µM
SNB-19; [2]
  CC50: 49.6 µM
SNB-19
  TGI: 7.95 µM
UACC-257; [1]
  GI50: 3.27 µM
UACC-257; [2]
  CC50: 60 µM
UACC-257
  TGI: 10.10 µM
OVCAR-4; [1]
  GI50: 1.79 µM
OVCAR-4; [2]
  CC50: 6.33 µM
OVCAR-4
  TGI: 3.36 µM
OVCAR-8; [1]
  GI50: 3.19 µM
OVCAR-8; [2]
  CC50: > 100 µM
OVCAR-8
  TGI: 11.50 µM
SK-OV-3; [1]
  GI50: 2.3 µM
SK-OV-3; [2]
  CC50: 59.1 µM
SK-OV-3
  TGI: 12.80 µM
786-0
  TGI: 3.67 µM
786-0; [1]
  GI50: 1.93 µM
786-0; [2]
  CC50: 6.98 µM
CAKI-1
  TGI: 6.03 µM
CAKI-1; [1]
  GI50: 2.1 µM
CAKI-1; [2]
  CC50: 25.6 µM
SN12C; [1]
  GI50: 2.46 µM
SN12C; [2]
  CC50: 33.9 µM
SN12C
  TGI: 6.79 µM
DU-145
  TGI: 4.61 µM
DU-145; [1]
  GI50: 1.98 µM
DU-145; [2]
  CC50: 14 µM
HS 578T
  TGI: 5.64 µM
HS 578T; [1]
  GI50: 2.3 µM
HS 578T; [2]
  CC50: > 100 µM
MDA-MB-468; Homo sapiens
  LC50 (concentration killing 50% of cells): 12.6 µM
MDA-MB-468; [1]
  GI50: 1.94 µM
MDA-MB-468
  TGI: 4.55 µM
Leukemia subpanel; [3]
  GI50: 2.88 µM
Leukemia subpanel
  GI50 Selectivity Ratio (MID a/MID b): 0.87
CNS Cancer subpanel
  GI50 Selectivity Ratio (MID a/MID b): 1.15
CNS Cancer subpanel; [3]
  GI50: 2.19 µM
